In patent US6365591B1, “Isoxazolecarboxamide derivatives” (Recordati, S.A., Chemical and Pharmacueticals Company, priority 1999, dated 2002):

Tests used:
[1] = target: T1, human 5-HT1A-serotoninergic receptor (Homo sapiens, UniProt P08908); test: Radioligand binding ([3H]8-OH-DPAT) to cloned 5-HT1A receptor in HeLa cell membranes; settings: mean Ki, read-out: Affinity for 5-HT1A receptor, Ki
T1 construct: expressed in transfected cells; host or cells: HeLa
T1 sequence (P08908 1-422): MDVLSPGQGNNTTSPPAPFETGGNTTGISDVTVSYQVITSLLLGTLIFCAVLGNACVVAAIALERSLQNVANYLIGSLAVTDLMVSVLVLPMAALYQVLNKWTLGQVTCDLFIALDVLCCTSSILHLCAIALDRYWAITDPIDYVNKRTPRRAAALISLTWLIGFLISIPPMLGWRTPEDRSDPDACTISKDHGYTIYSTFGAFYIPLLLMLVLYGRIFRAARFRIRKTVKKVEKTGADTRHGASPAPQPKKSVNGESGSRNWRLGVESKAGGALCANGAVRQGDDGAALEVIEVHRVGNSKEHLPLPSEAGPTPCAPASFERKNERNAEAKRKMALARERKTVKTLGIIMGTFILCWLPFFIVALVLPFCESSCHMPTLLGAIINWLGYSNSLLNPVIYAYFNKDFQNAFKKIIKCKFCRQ
From the text: Data were expressed as mean Ki.

[2] = target: T2, recombinant α1b-adrenoceptor (Homo sapiens, UniProt P35368); test: biochemical
T2 sequence (P35368 1-520): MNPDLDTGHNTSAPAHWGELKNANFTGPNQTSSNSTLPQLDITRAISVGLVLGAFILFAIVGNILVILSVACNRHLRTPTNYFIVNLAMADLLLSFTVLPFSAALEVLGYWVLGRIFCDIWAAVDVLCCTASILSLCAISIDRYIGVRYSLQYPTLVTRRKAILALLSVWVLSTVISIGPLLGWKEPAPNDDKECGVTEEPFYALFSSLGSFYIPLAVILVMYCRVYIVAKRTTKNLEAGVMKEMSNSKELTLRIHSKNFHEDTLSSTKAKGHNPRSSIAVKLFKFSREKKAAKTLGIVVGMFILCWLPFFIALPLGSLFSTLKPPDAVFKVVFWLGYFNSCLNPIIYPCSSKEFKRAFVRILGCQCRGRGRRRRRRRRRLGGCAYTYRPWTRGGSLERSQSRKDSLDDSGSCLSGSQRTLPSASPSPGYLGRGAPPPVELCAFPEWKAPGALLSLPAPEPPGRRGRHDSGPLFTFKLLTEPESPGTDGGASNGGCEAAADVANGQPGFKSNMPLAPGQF
Method: (§4) Determination of Affinity for Cloned α1 Adrenergic Receptors and 5-HT1A Serotoninergic Receptors by Radioligand Binding Assay
(§5) Determination of affinity for cloned subtypes of the α1-adrenoceptor was performed in membranes from cells transfected by electroporation with DNA expressing the genes encoding each α1-adrenoceptor subtype.
(§6) Non-specific binding was determined in the presence of 10 μM phentolamine. Incubation was stopped by addition of ice-cold Tris buffer and rapid filtration through 0.2%-polyethyleneimine pretreated Schleicher & Schuell GF52 filters.

diastolic blood pressure = test: Diastolic blood pressure in anaesthetised dogs, i.v. administration; format: in vivo, dog
Method: (§1) Effects on Urethral Contractions (Induced by Noradrenaline Injection and Hypogastric-nerve Stimulation) and on Blood Pressure in Dogs After Intravenous Administration
(§2) The experiments were performed according to the method of Imagawa et al. (J. Pharmacol. Methods, 22:103-111, 1989) with substantial modifications, as follows: adult male beagle dogs, weighing 8-10 kg, were anaesthetised with pentobarbital sodium (30 mg/kg i.v. and 2 mg/kg/h i.v.), intubated and spontaneously ventilated with room air. In order to monitor systemic blood pressure (BP), a polyethylene (PE) catheter was introduced into the aortic arch through the left femoral artery. A collateral of the left femoral vein was cannulated for infusion of anaesthetic, and the right femoral vein was cannulated for administration of the compounds. […] Prostatic urethral pressure was monitored with a Mikro-tip catheter (5F) introduced into the bladder via the external urethral meatus, and withdrawn until the pressure transducer was positioned in the prostatic region of the urethra. […]
(§3) After a stabilizing period following the surgical procedure (30 minutes), in which arterial and prostatic urethral pressure were continuously monitored as basal values, i.a. administration of NA and stimulation of the hypogastric nerve were alternately made at intervals of 10 minutes. […]

[3] = target: T3, recombinant α1a-adrenoceptor (UniProt P35348); settings: read-out: Affinity for recombinant α1a-adrenoceptor subtype, Ki; [3H]prazosin, membranes of transfected cells; mean Ki
T3 sequence (P35348 1-466): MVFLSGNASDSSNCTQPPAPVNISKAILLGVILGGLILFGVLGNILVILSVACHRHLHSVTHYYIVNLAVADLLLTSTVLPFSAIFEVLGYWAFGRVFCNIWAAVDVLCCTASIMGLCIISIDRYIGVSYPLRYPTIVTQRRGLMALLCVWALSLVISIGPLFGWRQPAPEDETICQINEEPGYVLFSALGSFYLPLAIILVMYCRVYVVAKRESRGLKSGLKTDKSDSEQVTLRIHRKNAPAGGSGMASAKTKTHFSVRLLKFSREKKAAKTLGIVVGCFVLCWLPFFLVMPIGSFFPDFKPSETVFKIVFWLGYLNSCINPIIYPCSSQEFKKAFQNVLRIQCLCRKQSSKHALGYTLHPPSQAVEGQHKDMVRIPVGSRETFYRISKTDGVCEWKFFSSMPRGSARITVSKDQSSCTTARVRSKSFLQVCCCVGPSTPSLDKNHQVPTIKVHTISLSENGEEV
Method: as §4, §5, §6

[4] = tested on: prostatic urethral pressure (noradrenaline-induced); test: Urethral contractions induced by intraarterial noradrenaline in anaesthetised dogs, i.v. administration; format: in vivo, dog
Method: as §1, §2, §3

[5] = tested on: prostatic urethral pressure (hypogastric-nerve stimulation); test: Urethral contractions induced by hypogastric-nerve stimulation in anaesthetised dogs, i.v. administration; format: in vivo, dog
Method: as §1, §2, §3

[6] = target: T4, recombinant α1d-adrenoceptor (UniProt P25100); settings: [3H]prazosin, membranes of transfected cells; mean Ki
T4 sequence (P25100 1-572): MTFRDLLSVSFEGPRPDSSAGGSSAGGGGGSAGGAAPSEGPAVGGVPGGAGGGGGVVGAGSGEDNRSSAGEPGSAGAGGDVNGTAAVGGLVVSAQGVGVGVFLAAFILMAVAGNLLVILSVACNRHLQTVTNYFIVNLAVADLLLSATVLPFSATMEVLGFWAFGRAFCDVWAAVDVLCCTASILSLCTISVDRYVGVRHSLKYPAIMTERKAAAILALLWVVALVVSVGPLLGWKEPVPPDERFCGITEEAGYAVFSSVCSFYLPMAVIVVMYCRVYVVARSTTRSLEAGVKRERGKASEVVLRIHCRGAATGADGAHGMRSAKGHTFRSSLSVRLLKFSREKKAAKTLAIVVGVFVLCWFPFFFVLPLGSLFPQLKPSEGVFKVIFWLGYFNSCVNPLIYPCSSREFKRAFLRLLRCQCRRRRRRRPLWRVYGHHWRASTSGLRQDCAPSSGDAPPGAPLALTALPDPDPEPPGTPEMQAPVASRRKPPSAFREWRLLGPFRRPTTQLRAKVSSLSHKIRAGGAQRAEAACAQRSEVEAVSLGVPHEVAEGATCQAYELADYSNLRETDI
Method: as §4, §5, §6

Structure (SMILES) | Ki [1] [nM] | Ki [2] [nM] | Ki [3] [nM] | Affinity for recombinant α1d-adrenoceptor subtype, Ki [6] | DBP ED25: dose inducing a 25% decrease in diastolic blood pressure (diastolic blood pressure) [mg/kg] | UP ID50 NA: dose inhibiting by 50% the urethral contractions induced by noradrenaline [4] [mg/kg] | UP ID50 HYP: dose inhibiting by 50% the urethral contractions induced by hypogastric-nerve stimulation [5] [mg/kg]
Cc1onc(-c2ccccc2)c1C(=O)NCCCN1CCN(c2cc(Cl)ccc2OS(=O)(=O)C(F)(F)F)CC1 [Example 7, N-{3-[4-(5-Chloro-2-trifluoromethanesulphonyloxy)-1-piperazinyl]propyl}-5-methyl-3-phenylisoxazole-4-carboxamide] | ≥ 1000 | 7.49 | – | – | – | – | –
COc1ccc(Cl)cc1N1CCN(CCCNC(=O)c2c(-c3ccccc3)noc2C)CC1 [Example 1, N-{3-[4-(5-Chloro-2-methoxyphenyl)-1-piperazinyl]propyl}-5-methyl-3-phenylisoxazole-4-carboxamide] | 436 | 23.6 | 0.77 | – | 0.3545 | – | –
Cc1onc(-c2c(Cl)cccc2Cl)c1C(=O)NCCCN1CCN(c2ccc(F)cc2OCC(F)(F)F)CC1 [Example 10, 3-(2,6-Dichlorophenyl)-N-[3-[4-[4-fluoro-2-(2,2,2-trifluoroethoxy)phenyl]-1-piperazinyl]pro-pyl]-5-methylisoxazole-4-carboxamide] | 170 | 24.2 | – | – | – | – | –
Cc1onc(-c2c(F)cccc2Cl)c1C(=O)NCCCN1CCN(c2ccc(F)cc2OCC(F)(F)F)CC1 [Example 9, 3-(2-Chloro-6-fluorophenyl)-N-[3-[4-[4-fluoro-2-(2,2,2-trifluoroethoxy)phenyl]-1-piperazinyl]-propyl]-5-methylisoxazole-4-carboxamide] | 342 | 24.1 | – | – | – | – | –
Cc1onc(-c2c(F)cccc2Cl)c1C(=O)NCCCN1CCN(c2ccccc2OCC(F)(F)F)CC1 [Example 12, 3-(2-Chloro-6-fluorophenyl)-5-methyl-N-[3-[4-[2-(2,2,2-trifluoroethoxy)phenyl]1-piperazi-nyl]propyl]isoxazole-4-carboxamide] | 30 | 21.4 | – | – | – | – | –
Cc1onc(-c2ccccc2Cl)c1C(=O)NCCCN1CCN(c2ccc(F)cc2OCC(F)(F)F)CC1 [Example 11, 3-(2-Chlorophenyl)-N-[3-[4-[4-fluoro-2-(2,2,2-trifluoroethoxy)phenyl]-1-piperazinyl]propyl]-5-methylisoxazole-4-carboxamide] | 242 | 31.2 | – | – | – | – | –
O=C(NCCCN1CCN(c2ccc(F)cc2OCC(F)(F)F)CC1)c1conc1-c1ccc(F)cc1 [Example 8, 3-(4-Fluorophenyl)-N-[3-[4-[4-fluoro-2-(2,2,2-trifluoroethoxy)phenyl]-1-piperazinyl]propyl]-isoxazole-4-carboxamide] | 202 | 28.1 | – | 25/81 | – | – | –
Cc1onc(-c2ccccc2)c1C(=O)NCCCN1CCN(c2cc(Cl)ccc2O)CC1 [Example 2, N-{3-[4-(5-Chloro-2-hydroxyphenyl)-1-piperazinyl]propyl}-5-methyl-3-phenylisoxazole-4-carboxamide] | 49.5 | 9.97 | – | – | – | – | –

Continued, in another order:

Ki [1] [nM] | Ki [2] [nM] | Ki [3] [nM] | Affinity for recombinant α1d-adrenoceptor subtype, Ki [6] | Structure (SMILES) | DBP ED25: dose inducing a 25% decrease in diastolic blood pressure (diastolic blood pressure) [mg/kg] | UP ID50 NA: dose inhibiting by 50% the urethral contractions induced by noradrenaline [4] [mg/kg] | UP ID50 HYP: dose inhibiting by 50% the urethral contractions induced by hypogastric-nerve stimulation [5] [mg/kg]
11.7 | 36.2 | – | – | Cc1onc(-c2ccccc2)c1C(=O)NCCCN1CCN(c2ccccc2OCC(F)(F)F)CC1 [Example 3, 5-Methyl-3-phenyl-N-{3-[4-[2-(2,2,2-trifluoroethoxy)phenyl]-1-piperazinyl]propyl}isoxazole-4-carboxamide] | – | – | –
– | 570 | – | – | COc1ccc(OCC(F)(F)F)cc1N1CCN(CCCNC(=O)c2c(-c3ccccc3)noc2C)CC1 [Example 4, N-{3-[4-[2-Methoxy-5-(2,2,2-trifluoroethoxy)phenyl]-1-piperazinyl]propyl}-5-methyl-3-phenylisoxazole-4-carboxamide] | – | – | –
317 | 69.5 | 0.35 | – | Cc1onc(-c2ccccc2)c1C(=O)NCCCN1CCN(c2ccc(F)cc2OCC(F)(F)F)CC1 [Example 6, N-{3-[4-[4-Fluoro-2-(2,2,2-trifluoroethoxy)phenyl]-1-piperazinyl]propyl}-5-methyl-3-phenylisoxazole-4-carboxamide] | 0.1967 | 0.0024 | 0.0045
192 | 11.5 | 0.05 | – | Cc1onc(-c2ccccc2)c1C(=O)NCCCN1CCN(c2cc(F)ccc2OCC(F)(F)F)CC1 [Example 5, N-{3-[4-[5-Fluoro-2-(2,2,2-trifluoroethoxy)phenyl]-1-piperazinyl]propyl}-5-methyl-3-phenylisoxazole-4-carboxamide] | – | – | –
